This is an account of results in US6500222B2, “Diureides and their use” (priority 1999, dated 2002).

Test [1] deals with mustard seedlings (Sinapis alba, 'Maxi'). Briefly: Mustard seedling test on plant tolerance, growth and yield.
The subject of another test is ryegrass. The test can be described thus: Crop production experiment in Mitscherlich containers with ryegrass as test crop. The conditions noted are these: 2.4 g of N per container.
The mark [2] stands for this setting: N fertilization 100 mg/container, DAT 13.
Where [3] appears, read: N fertilization 100 mg/container, DAT 23.
Where [4] appears, read: N fertilization 200 mg/container, DAT 13.
[5] abbreviates: N fertilization 200 mg/container, DAT 23.
The mark [6] stands for this setting: N fertilization 400 mg/container, DAT 13.
[7] abbreviates: N fertilization 400 mg/container, DAT 23.

Turning to Urea [reference compound], the “"Greenness" (%) (N supply) 100% = dark green” value (from here on “"Greenness" (%)”) in test [1] (setting [2]), in test [1] (setting [3]), in test [1] (setting [4]) and in test [1] (setting [5]) was 100% throughout. The FW yield in test [1] (setting [3]) was found to be 19.6 g/container; in test [1] (setting [5]), 1.6 g/container. Also, the “N content in the DM (%)” value in test [1] (setting [3]) is on record as 4.3%; in test [1] (setting [5]), 6.5%. Also, the “N uptake in the shoot” value is 84 mg/container in test [1] (setting [3]) and 10 mg/container in test [1] (setting [5]). The Dry-matter production was 7.7 g/container in the test with ryegrass (day 16 post-fertilization); 5.6 g/container with ryegrass (day 30 post-fertilization); 8.6 g/container in the test on ryegrass (day 45 post-fertilization); 8.6 g/container in the test on ryegrass (day 58 post-fertilization); 5.9 g/container in the test on ryegrass (day 78 post-fertilization); 2.3 g/container in the test on ryegrass (day 100 post-fertilization). Further, the Dry-matter production in the test on ryegrass (day 125 post-fertilization) and in the test with ryegrass (day 174 post-fertilization) was 1.4 g/container each time. The Nitrogen uptake in the test on ryegrass (day 16 post-fertilization) stood at 480 mg/container; in the test on ryegrass (day 30 post-fertilization) it was 311 mg/container; in the test with ryegrass (day 45 post-fertilization), 404 mg/container; with ryegrass (day 58 post-fertilization) it was 410 mg/container; in the test with ryegrass (day 78 post-fertilization), 127 mg/container; in the test with ryegrass (day 100 post-fertilization), 50 mg/container. Also, the Nitrogen uptake in the test on ryegrass (day 125 post-fertilization) is given as 33 mg/container; in the test on ryegrass (day 174 post-fertilization) it was 27 mg/container.
Regarding “bis(N′-potassium sulfamate)malonic acid diureide [IaB]”, the “"Greenness" (%)” value in test [1] (setting [2]) was 70%; in test [1] (setting [3]) it was 30%; in test [1] (setting [4]) it was 80%; in test [1] (setting [5]) it was 85%; in test [1] (setting [6]) it was 85%; in test [1] (setting [7]) it was 85%. Besides, the FW yield in test [1] (setting [3]) came to 7.1 g/container; in test [1] (setting [5]), 4.7 g/container; in test [1] (setting [7]), 3.7 g/container. Further, the “N content in the DM (%)” value is 3.1% in test [1] (setting [3]), 5.3% in test [1] (setting [5]) and 6.6% in test [1] (setting [7]). In addition, the “N uptake in the shoot” value in test [1] (setting [3]) amounted to 46 mg/container; in test [1] (setting [5]) it was 80 mg/container; in test [1] (setting [7]), 90 mg/container.
For the substance “bis(N′-potassium sulfamate)succinic diureide [IaA]”, the “"Greenness" (%)” value in test [1] (setting [2]), in test [1] (setting [3]), in test [1] (setting [4]), in test [1] (setting [5]), in test [1] (setting [6]) and in test [1] (setting [7]) was 30% each time. Besides, the FW yield in test [1] (setting [3]) worked out at 10.4 g/container; in test [1] (setting [5]), 10.4 g/container; in test [1] (setting [7]) it was 10.6 g/container. Further, the results for the “N content in the DM (%)” value in test [1] (setting [3]), in test [1] (setting [5]) and in test [1] (setting [7]) were 1.5%, 1.7% and 1.9%, respectively. The results for the “N uptake in the shoot” value in test [1] (setting [3]), in test [1] (setting [5]) and in test [1] (setting [7]) were 27 mg/container, 28 mg/container and 29 mg/container, respectively.
fumaric acid diureide [Compound 1C]: the Dry-matter production came out at 4.2 g/container in the test on ryegrass (day 16 post-fertilization); 1.9 g/container in the test with ryegrass (day 30 post-fertilization); 2.1 g/container with ryegrass (day 45 post-fertilization); 3.4 g/container in the test on ryegrass (day 58 post-fertilization); 3.3 g/container in the test on ryegrass (day 78 post-fertilization); 5.1 g/container in the test with ryegrass (day 125 post-fertilization). Further, the Nitrogen uptake with ryegrass (day 16 post-fertilization) worked out at 112 mg/container; with ryegrass (day 30 post-fertilization), 60 mg/container; in the test on ryegrass (day 45 post-fertilization), 69 mg/container; in the test on ryegrass (day 58 post-fertilization) it was 108 mg/container; with ryegrass (day 78 post-fertilization) it was 104 mg/container; with ryegrass (day 125 post-fertilization), 138 mg/container.
Take malonic acid diureide [Compound 1A]: the Dry-matter production amounted to 5.7 g/container in the test with ryegrass (day 16 post-fertilization); 2.5 g/container in the test with ryegrass (day 30 post-fertilization); 3.8 g/container in the test with ryegrass (day 45 post-fertilization); 3.1 g/container in the test on ryegrass (day 58 post-fertilization); 5.4 g/container in the test on ryegrass (day 78 post-fertilization); 6.3 g/container with ryegrass (day 100 post-fertilization). Further, the figures for the Dry-matter production in the test on ryegrass (day 125 post-fertilization), with ryegrass (day 174 post-fertilization) and in the test with ryegrass (day 252 post-fertilization) were 9.3 g/container, 7.2 g/container and 4.5 g/container, respectively. Moreover, the Nitrogen uptake with ryegrass (day 16 post-fertilization) is given as 185 mg/container; in the test on ryegrass (day 30 post-fertilization), 97 mg/container; in the test on ryegrass (day 45 post-fertilization), 130 mg/container; with ryegrass (day 58 post-fertilization) it was 119 mg/container; with ryegrass (day 78 post-fertilization) it was 180 mg/container; with ryegrass (day 100 post-fertilization) it was 204 mg/container. In addition, the figures for the Nitrogen uptake in the test with ryegrass (day 125 post-fertilization), with ryegrass (day 174 post-fertilization) and with ryegrass (day 252 post-fertilization) were 283 mg/container, 154 mg/container and 145 mg/container, respectively.
For the substance succinic acid diureide [Compound 1B], the Dry-matter production amounted to 4 g/container in the test with ryegrass (day 16 post-fertilization); 1.7 g/container in the test with ryegrass (day 30 post-fertilization); 1.3 g/container in the test on ryegrass (day 45 post-fertilization); 2.2 g/container with ryegrass (day 58 post-fertilization); 4.6 g/container in the test with ryegrass (day 78 post-fertilization); 9.6 g/container in the test with ryegrass (day 125 post-fertilization). For the same substance, the Nitrogen uptake is listed as 114 mg/container in the test on ryegrass (day 16 post-fertilization); 50 mg/container in the test on ryegrass (day 30 post-fertilization); 36 mg/container in the test on ryegrass (day 45 post-fertilization); 69 mg/container in the test on ryegrass (day 58 post-fertilization); 161 mg/container in the test on ryegrass (day 78 post-fertilization); 281 mg/container in the test with ryegrass (day 125 post-fertilization).
